Key:
H23 NSCLC cells = experiment: MTT cytotoxicity assay; format: cell-based; conditions: gefitinib alone, up to a concentration of 25 μM, FIG. 21(b)
MTT cytotoxicity assay = format: cell-based; conditions: human, H23 NSCLC cells; gefitinib alone at 50 μM, FIG. 21(b); read-out: Loss of viability of H23 cells

With `COc1cc2ncnc(Nc3ccc(F)c(Cl)c3)c2cc1OCCCN1CCOCC1` [gefitinib] as the molecule, how does the “Cytotoxicity (MTT)” value (H23 NSCLC cells) read?
Its value is “no toxicity”.

What about the cytotoxicity at 50 μM (MTT cytotoxicity assay) of the same molecule?
Its cytotoxicity at 50 μM is 70%.

Reference: patent US20220331442A1, “ANTIBODY-BIOMOLECULE CONJUGATES LINKED THROUGH MULTIFUNCTIONAL MACROMOLECULE AND USES THEREOF” (LEVIM BIOTECH LLP, priority 2018, published 2022)
